Among the data in patent publication US5684028A, “Sulphorous derivatives of imidazole, their preparation process, the new intermediates obtained, their use as medicaments and the pharmaceutical compositions” (Roussel UCLAF, priority 1990, dated 1997) are IC50 and ED50 values, retold here.

In test [1] the test system is angiotensin II (response of the isolated portal vein). Nature of the test: Antagonistic activity of angiotensin II on the isolated portal vein. The following applies: portal vein of male Wistar rats; angiotensin II 3.10^-8 M; compound 15 minutes before; 37° C.; verapamil 1.10^-6 M; read-out: IC50 (dose which produces a 50% inhibition of the response to angiotensin). The protocol: The portal vein of male Wistar rats (about 350 g) (IFFA Credo France) is removed after cervical dislocation and placed rapidly in a physiological solution (see below) at ambient temperature. A ring of about 1 mm is mounted in a bath with an isolation mechanism, containing 20 ml of the following physiological solution (composition in mM: NaCl 118.3 - KCl 4.7 - MgSO4 1.2 - KH2 PO4 1.2 - NaHCO3 25 - glucose 11.1 - CaCl2 2.5), the medium is maintained at 37° C. and oxygenated with an oxygen (95%), carbon dioxide (5%) mixture. The initial pressure imposed is 1 g, the rings are left at rest for 60 to 90 minutes. In order to avoid spontaneous contractions, verapamil is added to the incubation bath (1.10^-6 M).
At the end of the rest period angiotensin II (Ciba hypertensin) 3.10^-8 M is added to the incubation bath and left in contact with the preparation for one minute. This operation is repeated every 30 minutes, the tissue being washed 3 or 4 times between two stimulations by angiotensin. The compound to be studied is introduced into the bath 15 minutes before a new stimulation by angiotensin. Increasing concentrations of the product to be studied are used and the IC50 (dose which produces a 50% inhibition of the response to angiotensin) of the product to be studied is calculated, this is expressed in nanomoles.

For test [2], the system named is angiotensin II (pressure effects). Nature of the test: Test for antagonistic activity of angiotensin II in a demedullated rat. In kind it is in vivo. The following applies: iv, demedullated male Sprague-Dawley rats, jugular vein injection 5 minutes before angiotensin II (0.75 micrograms/kg), diastolic arterial pressure, read-out: IC50 (dose which inhibits by 50% the pressure effects of angiotensin II). As for the experimental part:
3 - Test for antagonistic activity of angiotensin II in a demedullated rat
Male Sprague-Dawley rats (250 to 350 g) are anaesthetized by an intra-peritoneal injection of sodium pentobarbital (60 mg/kg). The diastolic arterial pressure is recorded by means of a heparinized catheter (PE50) introduced into the left carotid of the animal, and connected to a pressure calculator (Gould, Pressure Processor) by means of a Gould pressure sensor,
A catheter is introduced into the right jugular vein of the animal in order to allow the injection of the molecules to be studied.
The animal is placed under assisted respiration. A bilateral section of the pneumogastric nerves is carried out. The rat is then demedullated.
After a suitable period of stabilization, the study of the antagonism of the molecules vis- -vis angiotensin II (CIBA Hypertensin) is approached in the following manner:
1 - Three consecutive injections of angiotensin II (0.75 micrograms/kg) spaced 15 minutes apart permits a reproducible and stable pressure response to be obtained.
2 - While keeping a time interval of 15 minutes for the administration of angiotensin II, the molecules (0.01 to 10 mg/kg) are injected 5 minutes before the angiotensin II.
The pressure effects of angiotensin II in the presence of the antagonist are expressed as a percentage of the pressure effects of angiotensin II administered on its own. The dose which inhibits the studied effect by 50% is thus determined.
Each animal is considered to be its own control.

The target in the next test is T1, angiotensin II receptor (Rattus norvegicus, UniProt P25095).
T1 construct: A fresh membrane preparation obtained from the liver of a rat is used; from tissue; host or cells: rat liver, fresh membrane preparation
T1 sequence (P25095 1-359): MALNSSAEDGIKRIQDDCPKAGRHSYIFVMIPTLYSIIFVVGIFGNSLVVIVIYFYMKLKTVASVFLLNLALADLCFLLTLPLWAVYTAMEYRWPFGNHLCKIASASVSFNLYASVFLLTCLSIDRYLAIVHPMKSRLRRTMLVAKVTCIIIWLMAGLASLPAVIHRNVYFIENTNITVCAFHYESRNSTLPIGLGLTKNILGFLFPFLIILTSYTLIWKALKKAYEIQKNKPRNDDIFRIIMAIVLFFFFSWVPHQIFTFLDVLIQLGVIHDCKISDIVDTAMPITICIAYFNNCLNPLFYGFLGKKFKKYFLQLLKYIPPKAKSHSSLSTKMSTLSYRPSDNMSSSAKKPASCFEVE
Nature of the test: Test on the angiotensin II receptor (displacement of I^125 angiotensin II, rat liver membranes). In kind it is binding. The following applies: 25° C., 150 minutes, read-out: IC50 (50% inhibiting concentration, displacement of specific radioactivity fixed on the receptor). As for the experimental part: 1 - Test on the angiotensin II receptor
A fresh membrane preparation obtained from the liver of a rat is used. The tissue is ground up in a polytron in a Tris 50 mM buffer pH 7.4, the grinding is followed by 3 centrifugations at 30,000 g for 15 minutes, the deposits being taken up in between in the Tris buffer pH 7.4.
The last deposits are put in suspension in an incubation buffer (Tris 20 mM, NaCl 135 mM, […], KCl 10 mM, glucose 5 mM, MgCl2 10 mM PMSF 0.3 mM, bacitracin 0.1 mM, BSA 0.2%).
Aliquoted fractions of 2 ml are divided into hemolysis tubes and I^125 angiotensin II (25,000 DPM per tube) and the product to be studied are added. (The product is first tested at 3×10^-5 M three times). When the tested product displaces by more than 50% the radioactivity linked specifically to the receptor, it is tested again according to a range of 7 doses in order to determine the dose which inhibits by 50% the radioactivity linked specifically to the receptor. In this way the 50% inhibiting concentration is determined.
The non-specific bond is determined by addition of the product of Example 94 of the European Patent 0,253,310, at 10^-5 M (three times). The medium is incubated at 25° C. for 150 minutes, put in a water bath at 0° C. for 5 minutes, filtered under vacuum, rinsed with Tris buffer pH 7.4 and the radioactivity is counted in the presence of scintillating Triton.
The result is expressed directly as the 50% inhibiting concentration (IC50), that is as the concentration of studied product, expressed in nM, necessary to displace 50% of the specific radioactivity fixed on the receptor studied.

Turning to `CCCCc1nc(SCC)c(C(=O)O)n1Cc1ccc(-c2ccccc2C(=O)O)cc1` [Example 6, 2-butyl-1-[[2'-carboxy-(1,1'-biphenyl)-4-yl]-methyl]-4-(ethylthio)-1H-imidazole-5-carboxylic acid], the IC50 in test [1] was 13 nM.
Consider `CCCCc1nc(SCC)c(CO)n1Cc1ccc(-c2ccccc2C(=O)O)cc1` [Example 14, 4'-[[2-butyl-4-(ethylthio)-5-(hydroxymethyl)-1H-imidazol-1-yl]-methyl]-(1,1'-biphenyl)-2-carboxylic acid], for which the IC50 in test [1] was 10 nM. In test [2], the ED50 was determined as 0.78 mg/kg.
Turning to `CCCCc1nc([S+]([O-])CC)c(C(=O)O)n1Cc1ccc(-c2ccccc2C(=O)O)cc1` (stereo not drawn) [Example 16, 2-butyl-1-[[2'-carboxy-(1,1'-biphenyl)-4-yl]-methyl]-4-(ethylsulphinyl)-1H-imidazole-5-carboxylic acid], the ED50 in test [2] came to 0.29 mg/kg.
For the compound `CCCCc1nc(S(=O)(=O)CC)c(C(=O)O)n1Cc1ccc(-c2ccccc2C(=O)O)cc1` [Example 18, 2-butyl-1-[[2'-carboxy-(1,1'-biphenyl)-4-yl]-methyl]-4-(ethylsulphonyl)-1H-imidazole-5-carboxylic acid], in test [2], the ED50 worked out at 0.79 mg/kg.
For the compound `CCCCc1nc(Sc2ccccc2)c(C(=O)O)n1Cc1ccc(-c2ccccc2C(=O)O)cc1` [Example 20, 2-butyl-1-[[2'-carboxy-(1,1'-biphenyl)-4-yl]-methyl]-4-(phenylthio)-1H-imidazole-5-carboxylic acid], the IC50 in test [1] is 5 nM; at angiotensin II receptor, 17 nM.
With `CCCCc1nc(SC)c(C(=O)O)n1Cc1ccc(-c2ccccc2C(=O)O)cc1` [Example 22, 2-butyl-1-[[2'-carboxy-(1,1'-biphenyl)-4-yl]-methyl]-4-(methylthio)-1H-imidazole-5-carboxylic acid], the values for the IC50 (in test [1]; on angiotensin II receptor) were 8 nM and 49 nM, respectively. Besides, in test [2], the ED50 turned out to be 0.47 mg/kg.
Regarding `CCCCc1nc(S(=O)(=O)c2ccccc2)c(C(=O)O)n1Cc1ccc(-c2ccccc2C(=O)O)cc1` [Example 26, 2-butyl-1-[[2'-carboxy-(1,1'-biphenyl)-4-yl]-methyl]-4-(phenylsulphonyl)-1H-imidazole-5-carboxylic acid], the IC50 on angiotensin II receptor was 47 nM.
Still for that read-out and setting: the value for `CCCCc1nc([S+]([O-])c2ccccc2)c(C(=O)O)n1Cc1ccc(-c2ccccc2C(=O)O)cc1` (stereo not drawn) [Example 28, 2-butyl-1-[[2'-carboxy-(1,1'-biphenyl)-4-yl]-methyl]-4-(phenylsulphinyl)-1H-imidazole-5-carboxylic acid] was 10.2 nM.
In the case of `CCCCc1nc(SCc2ccccc2)c(C(=O)O)n1Cc1ccc(-c2ccccc2C(=O)O)cc1` [Example 48, 2-butyl-1-[[2'-carboxy-(1,1'-biphenyl)-4-yl]-methyl]-4-[(phenylmethyl)-thio]-1H-imidazole-5-carboxylic acid], the IC50 in test [1] is 0.9 nM; at angiotensin II receptor, 5.7 nM.
As to `CCCCc1nc(SC)c(C(=O)O)n1Cc1ccc(-c2ccccc2-c2nnn[nH]2)cc1` [Example 51, 2-butyl-4-(methylthio)-1-[[2'-(1H-tetrazol-5-yl)-(1,1'-biphenyl)-4-yl]-methyl]-1H-imidazole-5-carboxylic acid], the IC50 was 0.14 nM in test [1] and 1.9 nM on angiotensin II receptor. Further, the ED50 in test [2] came to 0.054 mg/kg.
In the same order, the values of `CCCCc1nc(SCc2ccc(OC)cc2)c(C(=O)O)n1Cc1ccc(-c2ccccc2C(=O)O)cc1` [Example 70] are 0.56 nM, 3.6 nM and 0.33 mg/kg.
In the same order, the values of `CCCCc1nc(SCc2ccccc2)c(CO)n1Cc1ccc(-c2ccccc2C(=O)O)cc1` [Example 74] are 2 nM, 5.8 nM and 0.34 mg/kg.
Consider `CCCCc1nc(S(C)(=O)=O)c(C(=O)O)n1Cc1ccc(-c2ccccc2-c2nn[nH]n2)cc1` [Example 83], for which the IC50 came to 0.21 nM in test [1] and 1.3 nM on angiotensin II receptor. Also, the ED50 in test [2] was 0.022 mg/kg.
As for `CCCCc1nc(S(C)(=O)=O)c(C(=O)O)n1Cc1ccc(-c2ccccc2-c2nn[nH]n2)cc1` [Example 84], on angiotensin II receptor, the IC50 was determined as 0.8 nM.
`CCCCc1nc(Sc2ccccc2)c(C(=O)O)n1Cc1ccc(-c2ccccc2-c2nn[nH]n2)cc1` [Example 92]: on angiotensin II receptor, the IC50 is 0.5 nM. In test [2], the ED50 was found to be 0.08 mg/kg.
`CCCCc1nc(SC)c(C(=O)OCOC(=O)C(C)(C)C)n1Cc1ccc(-c2ccccc2-c2nn[nH]n2)cc1` [Example 106]: the ED50 in test [2] amounted to 0.04 mg/kg.
